Legend:
[1] = Oral LD50 in the rat; details: in vivo
[2] = system: Ethanol (1) +NEM; test: Cytoprotective activity in the rat, Ethanol + NEM; assay type: in vivo; details: read-out: Cytoprotective activity DE50, Ethanol (1) +NEM
Procedure: (§1) iv) Cytoprotective activity in the rat
(§2) The tests were carried out according to what has been described in literature: • 1 (A.Robert et al. Gastroenterology, 77, 433 (1979)) (Table 4) • 2 (Szabo et al. Sciene 214 (200) (1981)) (Table 4)

[3] = system: NaOH (2) 0.2 N; test: Cytoprotective activity in the rat, NaOH 0.2 N; assay type: in vivo; details: read-out: Cytoprotective activity DE50, NaOH (2) 0.2 N
Procedure: as §1, §2

[4] = system: Acetyl salicyl-ic acid + HCl; test: Cytoprotective activity in the rat, acetylsalicylic acid + HCl; assay type: in vivo; details: read-out: Cytoprotective activity DE50, Acetyl salicyl-ic acid + HCl
Procedure: as §1, §2

[5] = system: NaCl (2) 25%; test: Cytoprotective activity in the rat, NaCl 25%; assay type: in vivo; details: read-out: Cytoprotective activity DE50, NaCl (2) 25%
Procedure: as §1, §2

CCCCCCC1CCC2(NC(=O)NC2=O)C1CCCCCCC(=O)O (centres unmarked) [IBI-P-01028, 5-spiro-[2-(6-carboxy-ethyl)-3-hexyl-cyclopentyl]-imidazoline-2,4-dione]
LD50 [1]: 2000 mg/kg
ED50 [2]: 30 mg/kg
ED50 [3]: 18 mg/kg
ED50 [4]: 78 mg/kg
ED50 [5]: 15 mg/kg

CCCCCCC1CCC(N)C1CCCCCCC(OCC)OCC (centres unmarked) [IBI-P-01053, 3-hexyl-2-(6-diethoxymethyl-hexyl)-cyclopentyl amine]
LD50 [1]: 3000 mg/kg
ED50 [2]: 7 mg/kg
ED50 [3]: 6 mg/kg
ED50 [4]: 252 mg/kg
ED50 [5]: 17 mg/kg

CCCCCCC1CCCC(N)C1CCCCCCC(=O)O (centres unmarked) [IBI-P-05006, 3-hexyl-2-(6-carboxy-hexyl)-cyclohexyl-amine]
LD50 [1]: 3000 mg/kg
ED50 [2]: 20 mg/kg
ED50 [3]: 9 mg/kg
ED50 [4]: > 200 mg/kg
ED50 [5]: 25 mg/kg

CCCCCC1C(N)CCC1CCCCCCCCO (centres unmarked) [IBI-P-10007, 2-pentyl-3-(8-hydroxy-octyl)-cyclopentyl amine]
LD50 [1]: 3000 mg/kg
ED50 [2]: 8 mg/kg
ED50 [3]: 4 mg/kg
ED50 [4]: 165 mg/kg
ED50 [5]: 4 mg/kg

— EP0319576B1, “PROSTAGLANDIN DERIVATIVES, PROCESSES FOR PREPARING THEM AND PHARMACEUTICAL COMPOSITIONS CONTAINING SAID DERIVATIVES” (IBI- Istituto Biochimico Italiano Giovanni Lorenzini S.p.A., priority 1987, dated 1988)
